These results are taken from ChEMBL document CHEMBL1201862, “PubChem BioAssay data set” (2004).

Test systems include 786-0; A498; BT-549; CAKI-1; COLO 205; HCT-15; HOP-62; HOP-92; Hs-578T; IGROV-1; K562; M14; MCF7; MDA-N; NCI-H226; OVCAR-8; RXF 393; SK-OV-3; SW-620; TK-10.
Common to all, as to assay: NCI tumour cell line growth inhibition, 48 h

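Method: 48-hour compound exposure of cells in 96-well plates, five concentrations, linear interpolation of endpoints. GI50: concentration for 50% inhibition of growth.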 Activity calls are given as the source filed them. No stated cut-off is given here; in the data, active = GI50 up to about 1.1 µM and inactive = higher.

Regarding `O=C1C(N2CCOCC2)=C(Cl)C(=O)c2ncccc21`, the GI50 is 1.84 µM (inactive) with 786-0; 8.32 µM (inactive) in the assay with A498; > 10 µM (inactive) in the assay on BT-549; > 10 µM (inactive) in the assay with CAKI-1; 2.24 µM (inactive) with COLO 205; 2.03 µM with HCT-15. Moreover, the GI50 is > 10 µM (inactive) in the assay on HOP-62; 1.5 µM (inactive) in the assay on HOP-92; 3.99 µM (inactive) in the assay with Hs-578T; > 8.53 µM (inactive) in the assay with IGROV-1; 1.39 µM (inactive) in the assay on K562; 2.37 µM (inactive) in the assay with M14. Besides, the GI50 in the assay with MCF7 is 1.81 µM (inactive); in the assay on MDA-N, 1.97 µM (inactive); in the assay on NCI-H226, > 6.25 µM (inactive); in the assay on OVCAR-8, 2.61 µM (inactive); in the assay on RXF 393 it was 1.55 µM (inactive); with SK-OV-3, > 10 µM (inactive). Also, the values for the GI50 in the assay on SW-620 and in the assay on TK-10 were 1.87 µM (inactive) and 1.98 µM (inactive), respectively.
`CCCCCCc1nn2c(-c3ccncc3)nnc2s1`: the GI50 with 786-0 was > 10 µM (inactive); in the assay with A498 it was > 10 µM (inactive); in the assay with BT-549 it was > 10 µM (inactive); with CAKI-1, > 10 µM (inactive); in the assay on COLO 205 it was > 10 µM (inactive); in the assay on HCT-15, greater than 10 µM. Besides, the GI50 was > 10 µM (inactive) with HOP-62; 8.65 µM (inactive) in the assay with HOP-92; > 10 µM (inactive) in the assay on Hs-578T; > 10 µM (inactive) in the assay with IGROV-1; > 10 µM (inactive) with K562; > 10 µM (inactive) with M14. Further, the GI50 with MCF7, in the assay with MDA-N, in the assay with NCI-H226, in the assay on OVCAR-8, in the assay with RXF 393 and in the assay on SK-OV-3 was > 10 µM (inactive) throughout. Also, the GI50 with SW-620 and in the assay on TK-10 was > 10 µM (inactive) in each case.
`COc1ccc(C(C)NNC(=O)c2ccncc2)c(OC)c1` (stereo not given): the GI50 with 786-0 was > 100 µM (inactive); in the assay with A498, > 100 µM (inactive); in the assay on BT-549 it was > 100 µM (inactive); in the assay on CAKI-1, > 100 µM (inactive); in the assay on COLO 205 it was > 100 µM (inactive); with HCT-15, greater than 100 µM. For the same compound, the GI50 in the assay on HOP-62 is > 100 µM (inactive); in the assay on HOP-92 it was > 100 µM (inactive); with Hs-578T, > 100 µM (inactive); with IGROV-1, > 100 µM (inactive); in the assay on K562, 93.1 µM (inactive); with M14 it was > 100 µM (inactive). The GI50 with MCF7, in the assay with MDA-N, in the assay on NCI-H226, with OVCAR-8, with RXF 393 and in the assay on SK-OV-3 was > 100 µM (inactive) throughout. Moreover, the GI50 in the assay on SW-620 and in the assay with TK-10 was > 100 µM (inactive) throughout.
As for `CN1CCCC2C(c3ccccc3)C(C3=NCCCC3)C(c3ccccc3)CC21` (stereo not given), the GI50 in the assay with 786-0 was 24.5 µM (inactive); in the assay with A498 it was 42.6 µM (inactive); in the assay with BT-549, 33.3 µM (inactive); in the assay with CAKI-1, > 100 µM (inactive); in the assay on COLO 205, 26.4 µM (inactive); in the assay on HCT-15, 27.2 µM. In addition, the GI50 in the assay on HOP-62 was > 100 µM (inactive); in the assay on HOP-92 it was 85.9 µM (inactive); with Hs-578T, 21.7 µM (inactive); in the assay on IGROV-1, 50 µM (inactive); in the assay with K562, 17.2 µM (inactive); in the assay with M14 it was 20.7 µM (inactive). Moreover, the GI50 in the assay on MCF7 is 56.6 µM (inactive); in the assay with MDA-N, 20.2 µM (inactive); in the assay on NCI-H226, > 100 µM (inactive); in the assay with OVCAR-8 it was 39.5 µM (inactive); in the assay with RXF 393, 23.4 µM (inactive); with SK-OV-3, > 100 µM (inactive). Besides, the GI50 is 48.6 µM (inactive) in the assay with SW-620 and > 100 µM (inactive) in the assay on TK-10.
Consider `N=C(N)c1ccc(/N=N\c2c(O)c(C(=O)Nc3ccccc3)cc3ccccc23)cc1`, for which the GI50 in the assay on 786-0 is 10.8 µM (inactive); in the assay with A498 it was > 100 µM (inactive); in the assay on BT-549, 46 µM (inactive); in the assay on CAKI-1, > 58.9 µM (inactive); in the assay on COLO 205, 29 µM (inactive); in the assay on HCT-15, 18.1 µM. The GI50 is 14.5 µM (inactive) in the assay on HOP-62; 16.4 µM (inactive) in the assay on HOP-92; 27.3 µM (inactive) with Hs-578T; 18.7 µM (inactive) with IGROV-1; 7.08 µM (inactive) in the assay on K562; > 71.4 µM (inactive) in the assay with M14. Besides, the GI50 in the assay with MCF7 was 9.86 µM (inactive); with MDA-N, 35.7 µM (inactive); with NCI-H226, 34.8 µM (inactive); in the assay on OVCAR-8, 16.1 µM (inactive); in the assay with RXF 393, > 43.4 µM (inactive); with SK-OV-3, > 32.6 µM (inactive). Further, the GI50 is 15.6 µM (inactive) in the assay with SW-620 and > 44.5 µM (inactive) in the assay with TK-10.
As for `Oc1ccccc1/C=N/Nc1nc(N/N=C/c2ccccc2O)nc(N/N=C/c2ccccc2O)n1`, the GI50 was 40.2 µM (inactive) with 786-0; > 100 µM (inactive) in the assay on A498; 85.3 µM (inactive) in the assay with BT-549; > 100 µM (inactive) in the assay with CAKI-1; > 100 µM (inactive) in the assay with COLO 205; 13.3 µM in the assay with HCT-15. For the same compound, the GI50 in the assay on HOP-62 was 44.6 µM (inactive); in the assay with HOP-92, 21.1 µM (inactive); in the assay on Hs-578T, 46.5 µM (inactive); in the assay with IGROV-1, 45.4 µM (inactive); with K562, > 100 µM (inactive); with M14, > 100 µM (inactive). The GI50 was 8.63 µM (inactive) with MCF7; > 100 µM (inactive) in the assay on MDA-N; 58.7 µM (inactive) with NCI-H226; > 100 µM (inactive) in the assay on OVCAR-8; 87.1 µM (inactive) with RXF 393; 71.9 µM (inactive) with SK-OV-3. The GI50 in the assay with SW-620 and in the assay with TK-10 was > 100 µM (inactive) in each case.
Turning to `Cc1ccc(OP(=O)(Oc2ccc(C)cc2)N2C=Cc3ccccc3C2C#N)cc1` (stereo not given), the GI50 with 786-0 is > 100 µM (inactive); with A498 it was > 100 µM (inactive); in the assay with BT-549 it was > 100 µM (inactive); with CAKI-1, > 100 µM (inactive); in the assay with COLO 205, > 100 µM (inactive); with HCT-15, greater than 100 µM. The GI50 with HOP-62 was > 100 µM (inactive); with HOP-92 it was > 100 µM (inactive); in the assay on Hs-578T, 70.5 µM (inactive); in the assay with IGROV-1 it was > 100 µM (inactive); in the assay with K562, > 100 µM (inactive); in the assay on M14, > 100 µM (inactive). The GI50 in the assay with MCF7, in the assay on MDA-N, in the assay with NCI-H226, in the assay with OVCAR-8, with RXF 393 and in the assay with SK-OV-3 was > 100 µM (inactive) each time. The GI50 with SW-620 and in the assay on TK-10 was > 100 µM (inactive) throughout.
On to `CN(C)CCCn1nc(N)c2nc3cc(Cl)ccc3nc21`, for which the GI50 with 786-0 was 50.7 µM (inactive); in the assay on A498, 52.1 µM (inactive); with BT-549 it was > 100 µM (inactive); in the assay on CAKI-1 it was > 79.6 µM (inactive); in the assay on COLO 205, 33 µM (inactive); in the assay on HCT-15, 48.9 µM. The GI50 with HOP-62 was 55.3 µM (inactive); with HOP-92 it was 25.3 µM (inactive); with Hs-578T, 41.4 µM (inactive); in the assay with IGROV-1 it was 22.9 µM (inactive); with K562, > 76.2 µM (inactive); in the assay with M14, 20.7 µM (inactive). The GI50 was 33.3 µM (inactive) in the assay on MCF7; 52.7 µM (inactive) with MDA-N; 45.2 µM (inactive) in the assay with NCI-H226; 40.2 µM (inactive) in the assay on OVCAR-8; 30.6 µM (inactive) with RXF 393; > 100 µM (inactive) in the assay with SK-OV-3. Moreover, the GI50 in the assay with SW-620 is 36.2 µM (inactive); in the assay with TK-10, 54.7 µM (inactive).
